According to US20260022143A1, “Cyclic Peptide Inhibitors of IL-23” (JANSSEN PHARMACEUTICA NV, priority 2022, published 2026):
Positions of bridges follow the written chain, without caps; N, C: chain ends. Non-standard residues stand in square brackets, D forms with d. Residues, ends and D or L forms follow the SMILES beside them. *: point of attachment. Me3N+(CH2)2O(CH2)2O(CH2)2CO = C[N+](C)(C)CCOCCOCCC(=O)*; Trp(7-Me) = Cc1cccc2c(C[C@H](N)C(=O)O)c[nH]c12; CH2CH2OCH2CH2NMe3+ = C[N+](C)(C)CCOCC*; X60 = CCCCCCCC[N+](C)(C)CCc1cn(CC*)nn1; 2Nal = N[C@@H](Cc1ccc2ccccc2c1)C(=O)O; AEF = NCCOc1ccc(C[C@H](N)C(=O)O)cc1; X50 = CCCC[N+](CCCC)(CCCC)CCOCCOCC*; X26 = C[N+](C)(C)CCCCc1cn(CC*)nn1; 3Pal = N[C@@H](Cc1cccnc1)C(=O)O; Lys(Me) = CNCCCC[C@H](N)C(=O)O; Pen = CC(C)(S)[C@H](N)C(=O)O; X49 = O=C(CCCCCCCC*)N1CCCCC1; X52 = C[N+](C)(C)CCOCCNCC*; Thp = NC1(C(=O)O)CCOCC1; Sar = CNCC(=O)O

What was measured:
[1] = Exposed Polar Surface Area (EPSA); format: physicochemical; conditions: SFC on Chirex 3014 column; sample 1 mM DMSO stock; read-out: EPSA
Procedure, shortened: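 Compounds, as 1 mM DMSO stock, were injected in duplicate onto an SFC Chirex 3014 column at 35 °C and eluted with a CO2/methanol (20 mM ammonium formate) gradient. EPSA values in Å^2 were derived from retention times using a linear fit to eight calibration standards, reinjected every 20 compounds.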

IL-23R = molecular target: T1, IL-23R (Homo sapiens, UniProt Q5VWK5); experiment: IL23R Reporter Assay; format: cell-based; conditions: HEK293 cells containing IL-23R, IL-12RP1 and STAT-inducible firefly luciferase reporter; 10 ng/mL IL-23 (EC90); 5 h at 37° C.; read-out: IL23R Reporter Assay
T1 construct: host or cells: HEK293
T1 sequence (Q5VWK5 24-629): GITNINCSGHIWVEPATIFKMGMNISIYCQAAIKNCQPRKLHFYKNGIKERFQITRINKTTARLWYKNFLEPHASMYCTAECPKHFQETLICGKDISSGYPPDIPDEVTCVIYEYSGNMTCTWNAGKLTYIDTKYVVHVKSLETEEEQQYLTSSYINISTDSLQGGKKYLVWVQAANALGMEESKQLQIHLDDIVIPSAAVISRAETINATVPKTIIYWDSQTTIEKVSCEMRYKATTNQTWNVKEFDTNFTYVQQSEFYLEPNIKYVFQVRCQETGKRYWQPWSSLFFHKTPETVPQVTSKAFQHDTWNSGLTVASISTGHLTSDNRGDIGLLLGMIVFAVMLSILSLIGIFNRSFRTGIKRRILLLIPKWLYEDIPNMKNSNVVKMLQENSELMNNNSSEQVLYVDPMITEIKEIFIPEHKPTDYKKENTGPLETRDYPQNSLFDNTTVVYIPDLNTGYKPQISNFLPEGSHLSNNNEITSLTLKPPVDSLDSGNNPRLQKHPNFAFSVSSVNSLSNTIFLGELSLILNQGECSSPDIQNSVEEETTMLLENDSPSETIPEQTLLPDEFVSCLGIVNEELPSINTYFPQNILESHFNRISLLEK

Row | EPSA [1] [A^2] | IC50 (IL-23R) [nM] | Compound
1 | 145 | 3.5 | CC(=O)N(C)CCCC[C@@H]1NC(=O)[C@H](Cc2c[nH]c3c(C)cccc23)NC(=O)[C@H]([C@@H](C)O)NC(=O)[C@H](CC(=O)N(C)C)NC(=O)[C@@H](NC(=O)CCOCCOCC[N+](C)(C)C)C(C)(C)SSC(C)(C)[C@@H](C(=O)N[C@@H](Cc2ccc(OCCNCCOCC[N+](C)(C)C)cc2)C(=O)N[C@@H](Cc2ccc3ccccc3c2)C(=O)NC2(C(=O)N[C@@H](CCCCN(C)C(C)=O)C(=O)N[C@@H](CC(N)=O)C(=O)N[C@@H](Cc3cccnc3)C(=O)N(C)CC(=O)N(C)C)CCOCC2)NC1=O [compound 238, cPEG3aCO-Pen(3)-N(N(Me)2)-T-7MeW-K(NMeAc)-Pen(3)-AEF(PEG2a)-2Nal-THP-K(NMeAc)-N-3Pya-Sar-CON(Me)2] ({Me3N+(CH2)2O(CH2)2O(CH2)2CO}-[Pen]D(NMe2)T[Trp(7-Me)][Lys(Me)](Ac)[Pen]Y(X52)[2Nal][Thp][Lys(Me)](Ac)N[3Pal][Sar]-NMe2; disulfide 1-6)
2 | 145 | 25 | CC(=O)N(C)CCCC[C@@H]1NC(=O)[C@H](Cc2c[nH]c3c(C)cccc23)NC(=O)[C@H]([C@@H](C)O)NC(=O)[C@H](CC(=O)N(C)C)NC(=O)[C@@H](NC(=O)CCOCCOCC[N+](C)(C)C)C(C)(C)SSC(C)(C)[C@@H](C(=O)N[C@@H](Cc2ccc(OCCCCCCCCC(=O)N3CCCCC3)cc2)C(=O)N[C@@H](Cc2ccc3ccccc3c2)C(=O)NC2(C(=O)N[C@@H](CCCCN(C)C(C)=O)C(=O)N[C@@H](CC(N)=O)C(=O)N[C@@H](Cc3cccnc3)C(=O)N(C)CC(=O)N(C)C)CCOCC2)NC1=O [compound 242, cPEG3aCO-Pen(3)-N(N(Me)2)-T-7MeW-K(NMeAc)-Pen(3)-YC8COPip-2Nal-THP-K(NMeAc)-N-3Pya-Sar-CON(Me)2] ({Me3N+(CH2)2O(CH2)2O(CH2)2CO}-[Pen]D(NMe2)T[Trp(7-Me)][Lys(Me)](Ac)[Pen]Y(X49)[2Nal][Thp][Lys(Me)](Ac)N[3Pal][Sar]-NMe2; disulfide 1-6)
3 | 148 | 42 | CC(=O)N(C)CCCC[C@H](NC(=O)C1(NC(=O)[C@H](Cc2ccc3ccccc3c2)NC(=O)[C@H](Cc2ccc(OCCN)cc2)NC(=O)[C@H]2NC(=O)[C@H](COCCOCC[N+](C)(C)C)NC(=O)[C@H](Cc3c[nH]c4c(C)cccc34)NC(=O)[C@H]([C@@H](C)O)NC(=O)[C@H](CC(=O)N(C)C)NC(=O)[C@@H](NC(=O)CCOCCOCC[N+](C)(C)C)C(C)(C)SSC2(C)C)CCOCC1)C(=O)N[C@@H](CC(N)=O)C(=O)N[C@@H](Cc1cccnc1)C(=O)N(C)CC(=O)N(C)C [compound 245, cPEG3aCO-Pen(3)-N(N(Me)2)-T-7MeW-APEG2Ser-Pen(3)-AEF-2Nal-THP-K(NMeAc)-N-3Pya-Sar-CON(Me)2] ({Me3N+(CH2)2O(CH2)2O(CH2)2CO}-[Pen]D(NMe2)T[Trp(7-Me)]S(CH2CH2OCH2CH2NMe3+)[Pen][AEF][2Nal][Thp][Lys(Me)](Ac)N[3Pal][Sar]-NMe2; disulfide 1-6)
4 | 146 | 6.9 | CCCCCCCC[N+](C)(C)CCc1cn(CCOc2ccc(C[C@H](NC(=O)[C@H]3NC(=O)[C@H](CCCCNC(C)=O)NC(=O)[C@H](Cc4c[nH]c5c(C)cccc45)NC(=O)[C@H]([C@@H](C)O)NC(=O)[C@H](CC(N)=O)NC(=O)[C@@H](NC(C)=O)C(C)(C)SSC3(C)C)C(=O)N[C@@H](Cc3ccc4ccccc4c3)C(=O)NC3(C(=O)N[C@@H](CCCCNC(C)=O)C(=O)N[C@@H](CC(N)=O)C(=O)N[C@@H](Cc4cccnc4)C(=O)N(C)CC(N)=O)CCOCC3)cc2)nn1 [compound 250] (Ac-[Pen]NT[Trp(7-Me)]K(Ac)[Pen]Y(X60)[2Nal][Thp]K(Ac)N[3Pal][Sar]-NH2; disulfide 1-6 (inferred))
5 | 146 | 40 | CC(=O)NCCCC[C@@H]1NC(=O)[C@H](Cc2c[nH]c3c(C)cccc23)NC(=O)[C@H]([C@@H](C)O)NC(=O)[C@H](CC(N)=O)NC(=O)[C@@H](NC(C)=O)C(C)(C)SSC(C)(C)[C@@H](C(=O)N[C@@H](Cn2cc(CC[N+](C)(C)C)nn2)C(=O)N[C@@H](Cc2ccc3ccccc3c2)C(=O)NC2(C(=O)N[C@@H](CCCCNC(C)=O)C(=O)N[C@@H](CC(N)=O)C(=O)N[C@@H](Cc3cccnc3)C(=O)N(C)CC(N)=O)CCOCC2)NC1=O [compound 253]
6 | 151 | 6.9 | CC(=O)NCCCC[C@@H]1NC(=O)[C@H](Cc2c[nH]c3c(C)cccc23)NC(=O)[C@H]([C@@H](C)O)NC(=O)[C@H](CC(N)=O)NC(=O)[C@@H](NC(C)=O)C(C)(C)SSC(C)(C)[C@@H](C(=O)N[C@@H](Cc2ccc(OCCn3cc(CCCC[N+](C)(C)C)nn3)cc2)C(=O)N[C@@H](Cc2ccc3ccccc3c2)C(=O)NC2(C(=O)N[C@@H](CCCCNC(C)=O)C(=O)N[C@@H](CC(N)=O)C(=O)N[C@@H](Cc3cccnc3)C(=O)N(C)CC(N)=O)CCOCC2)NC1=O [compound 258] (Ac-[Pen]NT[Trp(7-Me)]K(Ac)[Pen]Y(X26)[2Nal][Thp]K(Ac)N[3Pal][Sar]-NH2; disulfide 1-6 (inferred))
7 | 140 | 5 | CCCC[N+](CCCC)(CCCC)CCOCCOCCOc1ccc(C[C@H](NC(=O)[C@H]2NC(=O)[C@H](CCCCN(C)C(C)=O)NC(=O)[C@H](Cc3c[nH]c4c(C)cccc34)NC(=O)[C@H]([C@@H](C)O)NC(=O)[C@H](CC(=O)N(C)C)NC(=O)[C@@H](NC(=O)CCOCCOCC[N+](C)(C)C)C(C)(C)SSC2(C)C)C(=O)N[C@@H](Cc2ccc3ccccc3c2)C(=O)NC2(C(=O)N[C@@H](CCCCN(C)C(C)=O)C(=O)N[C@@H](CC(N)=O)C(=O)N[C@@H](Cc3cccnc3)C(=O)N(C)CC(=O)N(C)C)CCOCC2)cc1 [compound 263, cPEG3aCO-Pen(3)-N(N(Me)2)-T-7MeW-K(NMeAc)-Pen(3)-TBAPEG3F-2Nal-THP-K(NMeAc)-N-3Pya-Sar-CON(Me)2] ({Me3N+(CH2)2O(CH2)2O(CH2)2CO}-[Pen]D(NMe2)T[Trp(7-Me)][Lys(Me)](Ac)[Pen]Y(X50)[2Nal][Thp][Lys(Me)](Ac)N[3Pal][Sar]-NMe2; disulfide 1-6 (inferred))
8 | 159 | 6.4 | CC(=O)N(C)CCCC[C@@H]1NC(=O)[C@H](Cc2c[nH]c3c(C)cccc23)NC(=O)[C@H]([C@@H](C)O)NC(=O)[C@H](CC(=O)N(C)C)NC(=O)[C@@H](NC(=O)CCOCCOCC[N+](C)(C)C)C(C)(C)SSC(C)(C)[C@@H](C(=O)NC(Cc2ccc(OCCN(CCOCC[N+](C)(C)C)CCOCC[N+](C)(C)C)cc2)C(=O)N[C@@H](Cc2ccc3ccccc3c2)C(=O)NC2(C(=O)N[C@@H](CCCCN(C)C(C)=O)C(=O)N[C@@H](CC(N)=O)C(=O)N[C@@H](Cc3cccnc3)C(=O)N(C)CC(=O)N(C)C)CCOCC2)NC1=O (stereo partly drawn) [compound 265, cPEG3aCO-Pen(3)-N(N(Me)2)-T-7MeW-K(NMeAc)-Pen(3)-AEF(BisPEG2a)(RS)-2Nal-THP-K(NMeAc)-N-3Pya-Sar-CON(Me)2]
